Experimental data as given in patent publication US20120083522A1, “MODULATION OF INFLAMMATORY RESPONSES BY FACTOR XI” (Isis Pharmaceuitcals, inc., priority 2009, published 2012).
In the oligonucleotide strings, read from the 5' end, every base follows the letter of its sugar. An asterisk marks phosphorothioate; unmarked linkages are phosphodiester. Other units and linkages are bracketed, terminal groups are in braces. A string of capitals states the bases alone. e = 2'-O-(2-methoxyethyl) (MOE); [5mC] = 5-methylcytosine; d = 2'-deoxy (DNA)

Columns and labels:
human Factor XI mRNA [1] = experiment: Dose-dependent antisense inhibition in HepG2 cells, lipofectin (Example 2); assay type: cell-based; conditions: approximately 16 hours
Protocol: Cells were plated at a density of 10,000 cells per well and transfected using lipofectin reagent with 9.375 nM, 18.75 nM, 37.5 nM, 75 nM, and 150 nM concentrations of antisense oligonucleotide, as specified in Table 3. After a treatment period of approximately 16 hours, RNA was isolated from the cells and Factor XI mRNA levels were measured by quantitative real-time PCR. Human Factor XI primer probe set RTS 2966 (forward sequence: […], incorporated herein as SEQ ID NO: 3; reverse sequence: […], incorporated herein as SEQ ID NO: 4; probe sequence: TTGTCTACTGAAGCACACCCAAACAGGGAX, wherein X is the fluorophore, incorporated herein as SEQ ID NO: 5) was used to measure mRNA levels. Factor XI mRNA levels were adjusted according to total RNA content, as measured by RIBOGREEN®. Results are presented as percent inhibition of Factor XI, relative to untreated control cells.

human Factor XI mRNA [2] = experiment: Antisense inhibition in HepG2 cells by microwalk gapmers, 75 nM, lipofectin (Example 3); assay type: cell-based; conditions: HepG2 cells, 75 nM, oligonucleotides targeted to nucleobases 738 to 762 of SEQ ID NO: 1
Procedure, shortened: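 HepG2 cells (10,000 per well) were transfected with 75 nM gapmer using lipofectin and treated for about 24 h. Factor XI mRNA was quantified by real-time PCR, normalized to RiboGreen total RNA and expressed as percent inhibition versus untreated controls.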

human Factor XI mRNA [3] = experiment: Dose-dependent inhibition in HepG2 cells, lipofectin (Example 4); assay type: cell-based; conditions: 16 hours
Procedure, shortened: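 Read-out was percent inhibition of Factor XI mRNA relative to untreated controls, by qRT-PCR (RTS 2966) adjusted for RIBOGREEN-measured total RNA. Cells received antisense oligonucleotide at 9.375 to 75 nM (four levels) via lipofectin. Treatment lasted approximately 16 hours, with plating at 10,000 cells per well.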

human Factor XI mRNA [4] = experiment: Dose-dependent inhibition in HepG2 cells, electroporation (Example 4); assay type: cell-based; conditions: 16 hours
Procedure, shortened: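 HepG2 cells electroporated with 0.7, 2.2, 6.7 or 20 μM antisense gapmer and harvested after ~16 h. Factor XI mRNA quantified by qRT-PCR (primer probe set RTS 2966), normalised to total RNA (RIBOGREEN). Reported as percent inhibition versus untreated control cells.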

human Factor XI mRNA [5] = experiment: Antisense inhibition in HepG2 cells by microwalk gapmers, 8,000 nM, electroporation (Example 14); assay type: cell-based; conditions: HepG2 cells, 8,000 nM
Procedure, shortened: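 Percent reduction of Factor XI transcript, relative to untreated controls, by real-time PCR with RIBOGREEN normalisation. Readout taken about 24 h after electroporating HepG2 cells with 8,000 nM oligonucleotide. Gapmers are 5-10-5, 5-8-5 or 6-8-6 MOE wings, phosphorothioate backbone.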

[6] = Tolerability in Sprague-Dawley rats: hematology assays (Example 23); assay type: in vivo; parameters: RBC / WBC / Neutrophil / Lymphocyte / Platelets: unit not given here; conditions: blood
[7] = Tolerability in CD1 mice: body and organ weights (Example 21); assay type: in vivo; conditions: 50 mg/kg s.c. twice per week for 6 weeks, percentage of the body weight
Protocol: Body weight was measured at the onset of the study and subsequently twice per week. The body weights of the mice are presented in Table 87 and are expressed increase in grams over the PBS control weight taken before the start of treatment. Liver, spleen, and kidney weights were measured at the end of the study, and are also presented in Table 87 as percentage of the body weight.

[8] = Tolerability in CD1 mice: body and organ weight (Example 25); assay type: in vivo; conditions: 50 mg/kg s.c. twice per week for 6 weeks; for Kidney weight as percentage of body weight / Liver weight as percentage of body weight / Spleen weight as percentage of body weight: end of study

Substance | RBC [6] | WBC [6] | Body weight (increase over PBS control weight before start of treatment) [8] | Kidney weight as percentage of body weight [8] | Liver weight as percentage of body weight [8] | Spleen weight as percentage of body weight [8] | also measured
412206 (antisense e[5mC]*e[5mC]*eG*eT*eG*d[5mC]*dA*dT*d[5mC]*dT*dT*dT*d[5mC]*dT*dT*eG*eG*e[5mC]*eA*eT) [compound 412206] |  |  |  |  |  |  | percent inhibition of Factor XI (human Factor XI mRNA [1]; 9.375 nM): 28%; percent inhibition of Factor XI (human Factor XI mRNA [1]; 18.75 nM): 44%; percent inhibition of Factor XI (human Factor XI mRNA [1]; 37.5 nM): 68%; percent inhibition of Factor XI (human Factor XI mRNA [1]; 75 nM): 80%; percent inhibition of Factor XI (human Factor XI mRNA [1]; 150 nM): 89%; % inhibition of human Factor XI mRNA levels (human Factor XI mRNA [2]): 93%; percent inhibition of Factor XI mRNA, relative to untreated control cells (human Factor XI mRNA [3]; 9.375 nM): 24%; percent inhibition of Factor XI mRNA, relative to untreated control cells (human Factor XI mRNA [3]; 18.75 nM): 47%; percent inhibition of Factor XI mRNA, relative to untreated control cells (human Factor XI mRNA [3]; 37.5 nM): 69%; percent inhibition of Factor XI mRNA, relative to untreated control cells (human Factor XI mRNA [3]; 75 nM): 86%; percent inhibition of Factor XI mRNA, relative to untreated control cells (human Factor XI mRNA [4]; 0.7 μM): 22%; percent inhibition of Factor XI mRNA, relative to untreated control cells (human Factor XI mRNA [4]; 2.2 μM): 39%; percent inhibition of Factor XI mRNA, relative to untreated control cells (human Factor XI mRNA [4]; 6.7 μM): 81%; percent inhibition of Factor XI mRNA, relative to untreated control cells (human Factor XI mRNA [4]; 20 μM): 94%; Percent inhibition of human Factor XI mRNA levels (human Factor XI mRNA [5]): 91%
ISIS 416848: gapmer of Table 8 (antisense e[5mC]*eA*e[5mC]*eA*eG*dT*dT*dT*d[5mC]*dT*dG*dG*d[5mC]*dA*dG*eG*e[5mC]*e[5mC]*eT*e[5mC]) | 6.0 | 17 |  |  |  |  | 
ISIS 416851: gapmer of Table 8 (antisense eG*eT*eG*e[5mC]*eA*d[5mC]*dA*dG*dT*dT*dT*d[5mC]*dT*dG*dG*e[5mC]*eA*eG*eG*e[5mC]) | 7.4 | 11 |  |  |  |  | 
ISIS 416852: gapmer of Table 8 (antisense eT*eG*eG*eT*eG*d[5mC]*dA*d[5mC]*dA*dG*dT*dT*dT*d[5mC]*dT*eG*eG*e[5mC]*eA*eG) | 7.2 | 13 |  |  |  |  | 
ISIS 416856: gapmer of Table 8 (antisense eG*eG*e[5mC]*eA*eT*dT*dG*dG*dT*dG*d[5mC]*dA*d[5mC]*dA*dG*eT*eT*eT*e[5mC]*eT) | 7.7 | 19 |  |  |  |  | Kidney weight [7]: 1.4%
ISIS 416859: gapmer of Table 8 (antisense eG*eA*e[5mC]*eG*eG*d[5mC]*dA*dT*dT*dG*dG*dT*dG*d[5mC]*dA*e[5mC]*eA*eG*eT*eT) | 7.8 | 16 |  |  |  |  | 
ISIS 416860: gapmer of Table 8 (antisense e[5mC]*eG*eG*eA*e[5mC]*dG*dG*d[5mC]*dA*dT*dT*dG*dG*dT*dG*e[5mC]*eA*e[5mC]*eA*eG) | 7.8 | 17 |  |  |  |  | 
ISIS 416861: gapmer of Table 8 (antisense eG*e[5mC]*eG*eG*eA*d[5mC]*dG*dG*d[5mC]*dA*dT*dT*dG*dG*dT*eG*e[5mC]*eA*e[5mC]*eA) | 7.7 | 15 |  |  |  |  | 
ISIS 416863: gapmer of Table 8 (antisense e[5mC]*eA*eG*e[5mC]*eG*dG*dA*d[5mC]*dG*dG*d[5mC]*dA*dT*dT*dG*eG*eT*eG*e[5mC]*eA) | 7.6 | 17 |  |  |  |  | 
ISIS 416866: gapmer of Table 8 (antisense e[5mC]*eT*eG*eG*e[5mC]*dA*dG*d[5mC]*dG*dG*dA*d[5mC]*dG*dG*d[5mC]*eA*eT*eT*eG*eG) | 7.8 | 20 |  |  |  |  | 
ISIS 416867: gapmer of Table 8 (antisense eA*e[5mC]*eT*eG*eG*d[5mC]*dA*dG*d[5mC]*dG*dG*dA*d[5mC]*dG*dG*e[5mC]*eA*eT*eT*eG) | 7.8 | 14 |  |  |  |  | 
ISIS 445498: microwalk gapmer of Table 51 (antisense eG*eG*eT*eG*e[5mC]*eA*d[5mC]*dA*dG*dT*dT*dT*d[5mC]*dT*eG*eG*e[5mC]*eA*eG*eG) |  |  | 10 g | 1.6% | 6% | 0.5% | 
ISIS 445504: microwalk gapmer of Table 51 (antisense eG*eG*e[5mC]*eA*eT*eT*dG*dG*dT*dG*d[5mC]*dA*d[5mC]*dA*eG*eT*eT*eT*e[5mC]*eT) |  |  | 11 g | 1.6% | 6% | 0.4% | 
ISIS 445505: microwalk gapmer of Table 51 (antisense e[5mC]*eG*eG*e[5mC]*eA*eT*dT*dG*dG*dT*dG*d[5mC]*dA*d[5mC]*eA*eG*eT*eT*eT*e[5mC]) |  |  | 12 g | 1.5% | 6% | 0.5% | 
ISIS 445509: microwalk gapmer of Table 51 (antisense e[5mC]*eG*eG*eA*e[5mC]*eG*dG*d[5mC]*dA*dT*dT*dG*dG*dT*eG*e[5mC]*eA*e[5mC]*eA*eG) |  |  | 10 g | 1.6% | 6% | 0.5% | 
ISIS 445513: microwalk gapmer of Table 51 (antisense eG*e[5mC]*eA*eG*e[5mC]*eG*dG*dA*d[5mC]*dG*dG*d[5mC]*dA*dT*eT*eG*eG*eT*eG*e[5mC]) |  |  | 9 g | 1.6% | 5% | 0.4% | 
ISIS 445530: microwalk gapmer of Table 51 (antisense eG*e[5mC]*eA*eT*eT*dG*dG*dT*dG*d[5mC]*dA*d[5mC]*dA*eG*eT*eT*eT*e[5mC]) |  |  | 11 g | 1.5% | 6% | 0.5% | 
ISIS 445532: microwalk gapmer of Table 51 (antisense e[5mC]*eG*eG*e[5mC]*eA*dT*dT*dG*dG*dT*dG*d[5mC]*dA*e[5mC]*eA*eG*eT*eT) |  |  | 10 g | 1.6% | 6% | 0.4% | 
